The test system of data set [1] is Acanthamoeba castellanii. Kind of data set: Anti-amoebic activity against Acanthamoeba castellanii genotype T4 (ATCC 50492) trophozoites infected in human HCT-116 cells assessed as protection against amoebae infection at 100 ug/ml amoebae pretreated with compound for 2 hrs followed by host cell infection and measured after 24 hrs by LDH assay. It is filed as functional, organism-based. To be noted: dose 100.0 µg/ml, time 26.0 hrs.

In data set [2] the test system is Acanthamoeba castellanii. Briefly: Anti-amoebic activity against Acanthamoeba castellanii genotype T4 (ATCC 50492) cysts assessed as reduction in excystation at 100 ug/ml incubated for 24 to 72 hrs by hemocytometer analysis. It is filed as functional. To be noted: time 24-72 hrs.
Data set [3] relates to Acanthamoeba castellanii. Briefly: Anti-amoebic activity against Acanthamoeba castellanii genotype T4 (ATCC 50492) cysts assessed as reduction in excystation incubated for 24 to 72 hrs by hemocytometer analysis. Format: functional. To be noted: time 24-72 hrs.
In data set [4] the test system is Acanthamoeba castellanii. Briefly: Anti-amoebic activity against Acanthamoeba castellanii genotype T4 (ATCC 50492) trophozoites assessed as reduction in encystation at 100 ug/ml incubated for 48 hrs by hemocytometer analysis. Format: functional, organism-based. To be noted: dose 100.0 µg/ml.
Data set [5] deals with HCT-116. Briefly: Cytotoxicity against human HCT-116 cells at 100 ug/ml incubated for 24 hrs by LDH assay. To be noted: hct-116, 24 h, at 100 µg/mL. Format: toxicity, cell-based.
Data set [6] deals with Acanthamoeba castellanii. Kind of data set: Anti-amoebic activity against Acanthamoeba castellanii genotype T4 (ATCC 50492) trophozoites assessed as reduction in amoebae viability incubated for 24 hrs by trypan blue exclusion test. Format: functional.
The subject of data set [7] is Acanthamoeba castellanii. Kind of data set: Anti-amoebic activity against Acanthamoeba castellanii genotype T4 (ATCC 50492) trophozoites assessed as reduction in amoebae viability at 100 ug/ml incubated for 24 hrs by trypan blue exclusion test. It is filed as functional.
In data set [8] the test system is HCT-116. Briefly: Cytotoxicity against human HCT-116 cells at 5X excystation MIC50 concentration incubated for 24 hrs by LDH assay. It is filed as toxicity, cell-based. To be noted: hct-116, 24 h.

Experimental findings from ChEMBL document CHEMBL5532686, “Azole-based compounds as potential anti-Acanthamoeba agents” (RSC Med Chem, 2024) are described below.

Values after ≈ are worked out from the molar mass of the structure shown. Active and inactive are the calls of the source. No cut-off for these calls is given here.

As usually defined, the inhibition is the share of the control response that was lost under treatment. As a reminder, the MIC50 is the lowest concentration that inhibits either 50% of growth or 50% of the strains tested, depending on the study.

For `CC(C)(C)c1ccc(-c2nnc(SCc3cccc(C(F)(F)F)c3)n2-c2cccc(Cl)c2)cc1`, the outcome in the data set on Acanthamoeba castellanii [1] and in the data set with Acanthamoeba castellanii [4] was inactive. The inhibition at 100 µg/mL with Acanthamoeba castellanii [2] came to 78%; in the data set with Acanthamoeba castellanii [7], 25%. In addition, the MIC50 was determined as 80.6 µg/mL (≈ 160 µM) in the data set on Acanthamoeba castellanii [3] and 144 µg/mL (≈ 287 µM) in the data set with Acanthamoeba castellanii [6]. Further, the Activity with HCT-116 [5] is on record as 35%.

Regarding `Cc1ccc(-n2c(SCc3cccc(C(F)(F)F)c3)nnc2-c2ccc(C(C)(C)C)cc2)cc1`, the result in the data set on Acanthamoeba castellanii [1] and in the data set with Acanthamoeba castellanii [4] was inactive. Further, the inhibition at 100 µg/mL with Acanthamoeba castellanii [2] came out at 86%; with Acanthamoeba castellanii [7] it was 27%. In addition, the MIC50 in the data set with Acanthamoeba castellanii [3] came out at 19.5 µg/mL (≈ 40.6 µM); in the data set with Acanthamoeba castellanii [6], 180 µg/mL (≈ 373 µM). The molecule further had an Activity with HCT-116 [5] of 35%.

Consider `CC(C)(C)c1ccc(-c2nnc(SCc3cccc(C(F)(F)F)c3)n2-c2ccccc2)cc1`, for which the result in the data set on Acanthamoeba castellanii [1] and in the data set on Acanthamoeba castellanii [4] was inactive. The inhibition at 100 µg/mL amounted to 78% with Acanthamoeba castellanii [2] and 17% in the data set on Acanthamoeba castellanii [7]. Besides, the MIC50 with Acanthamoeba castellanii [3] came out at 85.5 µg/mL (≈ 183 µM); in the data set with Acanthamoeba castellanii [6], 239 µg/mL (≈ 512 µM).

In the case of `CC(C)c1ccc(-c2nnc(SCc3cccc(C(F)(F)F)c3)n2-c2cccc(Br)c2)cc1`, the Activity in the data set on HCT-116 [8] is reported as 17%. Further, the outcome in the data set with Acanthamoeba castellanii [1] and in the data set on Acanthamoeba castellanii [4] was inactive. In addition, the inhibition at 100 µg/mL with Acanthamoeba castellanii [2] turned out to be 77%; with Acanthamoeba castellanii [7], 34%. Moreover, the MIC50 in the data set with Acanthamoeba castellanii [3] is 32 µg/mL (≈ 60.1 µM); in the data set with Acanthamoeba castellanii [6], 125 µg/mL (≈ 235 µM).
